According to patent publication US11135214B2, “Methods for enhancing the bio availability and exposure of a voltage-gated potassium channel opener” (priority 2018, dated 2021):
Values joined by “and” are separate entries in the source; they are usually repeats but may differ in a detail not shown here. Equal entries are not always repeated. Where two headings read alike, the source gives them in different places.

How the values were obtained:
[1] = First-in-human SAD and MAD study, safety and tolerability; format: in vivo; conditions: for Cmax: human, plasma, oral, read-out: individual Cmax levels up to which well tolerated
Protocol: A first-in-human study was conducted to evaluate the safety, tolerability and pharmacokinetics (PK) of single and multiple ascending doses (SAD and MAD) of oral Compound A.
In the SAD Phase, 32 healthy volunteers were randomized (3:1) to Compound A (5, 15, 20, 25 or 30 mg) or placebo. The study featured an adaptive design. A crossover food effect cohort (N=10) was also completed with single doses of 20 mg. A sub-set of 8 male subjects were also assessed with Transcranial Magnetic Stimulation (TMS) for effects on cortical excitability (see Examples 4 and 5).
Repeat doses of Compound A (15 mg QD) were evaluated in a fasted and fed state over 7 and 10 days, respectively. Repeat doses of Compound A (25 mg QD) were also evaluated in a fed state over 10 days.
Compound A was formulated as an immediate release capsule. Serial plasma PK samples were collected for all cohorts. Safety evaluations throughout the study included adverse event (AE) monitoring, clinical laboratory tests, vital signs, ECGs, physical examinations and Columbia-Suicide Severity Rating Scale.

cortical excitability [2] = test: TMS crossover study, TMS-evoked EEG potentials (TEPs); format: in vivo, human; conditions: for N45 vs pre-dose: 4 h (p=0.03)
Protocol: All 20 subjects underwent TMS-EMG and TMS-EEG sessions prior to dosing on Days 1 and 7 and at 2 and 4 h after dosing. […] For the 6 h timepoint, RMT was performed for 16 subjects, and AMT, EEG resting state, and TMS-EEG was performed for 8 subjects.
Compound A-induced modulation of PD markers was evaluated as an effect of time (comparisons of 2, 4, and 6 h post-dose vs. pre-dose) and of concentration (using the post-dose measure taken during highest drug exposure vs. baseline).
TMS-evoked EEG potentials (TEPs) were calculated by averaging artefact-free EEG trials in the different experimental conditions (Table 17).
The following TEP components (P=positive, N=negative) in accordance with the literature were studied, value in parenthesis is the time of interest (TOI): P25 (15-35 ms), N45 (35-70 ms), P70 (70-80 ms), N100 (80-145 ms), and P180 (145-230 ms). TOIs were chosen on the basis of the grand-averaged TEPs and kept identical during the analysis of pre-dose and post-dose measurements and across conditions. To analyze drug-induced modulation of TEPs, we selected a region of interest (ROI) that was composed of 27 channels over and around the stimulation site (left M1) and the corresponding contralateral site (‘FC1’, ‘FC3’, ‘FC5’, ‘C1’, ‘C3’, ‘C5’, ‘CP1’, ‘CP3’, ‘CP5’, ‘P1’, ‘P3’, ‘P5’, ‘Cz’, ‘CPz’, ‘Pz’, ‘FC2’, ‘FC4’, ‘FC6’, ‘C2’, ‘C4’, ‘C6’, ‘CP2’, ‘CP4’, ‘CP6’, ‘P2’, ‘P4’, ‘P6’).
To analyze significance of TEP amplitude modulations induced by Compound A, multiple dependent sample t-test comparisons (post-dose vs. pre-dose) were applied for each TOI in all the electrodes within the indicated ROI. To correct for multiple comparisons (i.e., electrodes, timepoints), we conducted a non-parametric cluster-based permutation analysis as implemented in FieldTrip.

cortical excitability [3] = test: TMS crossover study, TMS-induced oscillations; format: in vivo, human
Protocol: Before drug intake, at baseline, TMS induced an early increase of theta/alpha power followed by a beta power decrease (de-synchronization) and a final late response of increased beta power. The effects of the active compound on TMS-induced oscillations were then analysed by means of a cluster-based permutation analysis following the same procedure as adopted in the analysis of TEPs. Theta (4-7 Hz), alpha (8-12 Hz) and beta (13-30 Hz) TMS-induced oscillations were compared from 30 ms (the first time-frequency point considered artefact free) to 800 ms between drug conditions. This method was preferred instead of a predetermined set of time windows, given the absence of a consensus for time windows of interest to be used in the TMS induced oscillation analysis. Also, the present cluster-based statistics approach is appropriate for exploratory analyses, as it minimizes false-positives involved in testing multiple time-points.

[4] = system: corticospinal excitability; test: TMS crossover study, TMS-EMG resting motor threshold (RMT); format: in vivo, human; conditions: for Resting Motor Threshold, post-dose change from baseline: individual subjects; for Resting Motor Threshold, post-dose change from baseline (Mean): mean of subjects
Protocol: PD assessments included resting state electroencephalogram (RS-EEG); TMS-EMG measurements including resting motor threshold (RMT), active motor threshold (AMT), and short-interval intracortical inhibition (SICI); and TMS-EEG measurements. All 20 subjects underwent TMS-EMG and TMS-EEG sessions prior to dosing on Days 1 and 7 and at 2 and 4 h after dosing. […] For the 6 h timepoint, RMT was performed for 16 subjects, and AMT, EEG resting state, and TMS-EEG was performed for 8 subjects. RMT and AMT values are reported as percentages of maximum stimulator output (% MSO). Drug-induced modulation of TMS-EMG parameters were evaluated over the 3 timepoints (2, 4, and 6 h) and for the timepoint with the highest drug exposure. Individual and averaged RMT values at baseline and change each timepoint for Compound A and placebo for all 20 subjects are presented in Table 18. […] In addition, RMT could not be registered for Subject 912 at 2 hours after Compound A intake.

[5] = at highest Compound A plasma concentration vs pre-dose
[6] = single 20 mg dose, 2 h post-dose
[7] = single 20 mg dose, 4 h post-dose
[8] = single 20 mg dose, 6 h post-dose

SMILES: Cc1cc(N2CCc3cc(F)ccc3C2)cc(C)c1NC(=O)CC(C)(C)C [Compound A, N-[4-(6-fluoro-3,4-dihydro-1H-isoquinolin-2-yl)-2,6-dimethylphenyl]-3,3-dimethylbutanamide]
- Cmax ([1]; multiple doses): ≤ 107 ng/mL
- Cmax ([1]; single doses): ≤ 104 ng/mL
- SAEs, deaths, ECG or laboratory findings ([1]; single and multiple doses): no SAEs, deaths, or clinically significant ECG or laboratory findings
- severity of the majority of AEs ([1]; single and multiple doses, e.g. dizziness, sedation): mild or moderate
- safety and tolerability ([1]; single doses of up to 30 mg and multiple doses of 25 mg QD): safe and well-tolerated
- Modulation of TEPs, N45 (cortical excitability [2]; 2 h after dosing vs pre-dose): Not significant
- Modulation of TEPs, P180 (cortical excitability [2]; 2 h after dosing vs pre-dose): Not significant
- N15-P25 complex vs pre-dose (cortical excitability [2]; all available subjects, 2 h (p=0.006) and 4 h (p=0.01)): decreased
- P180 vs pre-dose (cortical excitability [2]; all available subjects, 4 h (p=0.02)): significantly suppressed
- N45 vs pre-dose (cortical excitability [2]; all available subjects): significantly suppressed
- TEP amplitude P180 (cortical excitability [2]; concentration analysis N=16, highest plasma concentration, printed 2.2 vs 3.0 μV, p<0.01): 2.2 μV
- peak-to-peak amplitude of early complex N15-P25 (15 to 35 ms) (cortical excitability [2]; concentration analysis N=16, highest plasma concentration, printed 4.5 vs 6.0 μV, p<0.05): 4.5 μV
- TEP amplitude N45 (cortical excitability [2]; concentration analysis N=16, highest plasma concentration, printed −2.3 vs −3.0 μV, p<0.01): −2.3 μV
- N15-P25 complex vs pre-dose (cortical excitability [2]; subjects with drug exposure, 2 h (p=0.008) and 4 h (p=0.02)): decreased
- P180 vs pre-dose (cortical excitability [2]; subjects with drug exposure, 4 h (p=0.004)): significantly suppressed
- N45 vs pre-dose (cortical excitability [2]; subjects with drug exposure): significantly suppressed
- N100 vs pre-dose (cortical excitability [2]; subjects with drug exposure, 4 h (p=0.04)): significantly suppressed
- Modulation of TMS-induced oscillations, Alpha (cortical excitability [3]; 2 h after dosing vs pre-dose): Not significant
- Modulation of TMS-induced oscillations, Beta (cortical excitability [3]; 2 h after dosing vs pre-dose): Not significant
- Modulation of TMS-induced oscillations, Theta (cortical excitability [3]; 2 h after dosing vs pre-dose): Not significant
- Modulation of TMS-induced oscillations, Alpha (cortical excitability [3]; 4 h after dosing vs pre-dose): ↓ Alpha 250-390 ms
- Modulation of TMS-induced oscillations, Beta (cortical excitability [3]; 4 h after dosing vs pre-dose): ↑ Beta 250-330 ms
- Modulation of TMS-induced oscillations, Theta (cortical excitability [3]; 4 h after dosing vs pre-dose): ↓ Theta 30-180 ms
- theta TMS-induced oscillations (cortical excitability [3]; all available subjects, 2 h post-dose): trend to suppress
- alpha TMS-induced oscillations (cortical excitability [3]; all available subjects, 4 h, p=0.03, 250 to 400 ms): suppressed
- theta induced oscillations (cortical excitability [3]; all available subjects, 6 h, p=0.03, 80 to 300 ms): significant depression
- alpha band TMS-induced oscillations (cortical excitability [3]; all available subjects, 6 h, trend p=0.07, 270-390 ms): trend to suppress
- Modulation of TMS-induced oscillations, Alpha (cortical excitability [3]; [5]): ↓ Alpha 220-400 ms
- Modulation of TMS-induced oscillations, Beta (cortical excitability [3]; [5]): ↑ Beta 210-310 ms
- Modulation of TMS-induced oscillations, Theta (cortical excitability [3]; [5]): ↓ Theta 30-390 ms
- early theta TMS-induced oscillations (cortical excitability [3]; concentration analysis N=16, p<0.001, 30 to 390 ms): suppressed
- alpha TMS-induced oscillations (cortical excitability [3]; concentration analysis N=16, p=0.02, 220 to 400 ms): suppressed
- beta TMS-induced power (cortical excitability [3]; concentration analysis N=16, p=0.04, 220 to 310 ms): increased
- TMS-induced oscillations (cortical excitability [3]; subjects with drug exposure, 2 h post-dose): did not modulate oscillations
- early theta TMS-induced oscillations (cortical excitability [3]; subjects with drug exposure, 4 h, p=0.03, 30 to 180 ms): suppressed
- alpha TMS-induced oscillations (cortical excitability [3]; subjects with drug exposure, 4 h, p=0.03, 250 to 390 ms): suppressed
- beta TMS-induced desynchronization (cortical excitability [3]; subjects with drug exposure, 4 h, p=0.04, 250 to 330 ms): increased
- theta induced oscillations (cortical excitability [3]; subjects with drug exposure, 6 h, p<0.001, 30 to 280 ms): significant depression
- RMT ([4]; 20 mg single dose): significant increase in RMT
- RMT increase, mean±SEM ([4]; 20 mg, 6 h): 4.9±0.7%
- effect on RMT ([4]; 20 mg, 6 h post-dose): > 4%
- Resting Motor Threshold, post-dose change from baseline [4, 6]: 3 % MSO (4×) and 1 % MSO (4×) and 0 % MSO (7×) and 2 % MSO (3×) and 6 % MSO
- Resting Motor Threshold, post-dose change from baseline [4, 7]: 7 % MSO (2×) and 1 % MSO (4×) and 0 % MSO (4×) and 6 % MSO (2×) and 3 % MSO (3×) and 5 % MSO and 10 % MSO and 2 % MSO (2×) and 4 % MSO
- Resting Motor Threshold, post-dose change from baseline [4, 8]: 8 % MSO (2×) and 4 % MSO (3×) and 6 % MSO (2×) and 10 % MSO and 1 % MSO (2×) and 0 % MSO and 7 % MSO (3×) and 3 % MSO (2×)
- Resting Motor Threshold, post-dose change from baseline (Mean) [4, 6]: 1.5 % MSO
- Resting Motor Threshold, post-dose change from baseline (Mean) [4, 7]: 3.1 % MSO
- Resting Motor Threshold, post-dose change from baseline (Mean) [4, 8]: 4.9 % MSO
- RMT compared to time matched placebo ([4]; single 20 mg dose, 2, 4, and 6 h post-dose): increased RMT from baseline
